US20250243203A1, “NICOTINAMIDE- AND BENZAMIDE-BASED COMPOUNDS, CONJUGATES, AND COMPOSITIONS AS INHIBITORS OF TRANSLATIONAL- AND TRANSCRIPTIONAL-RELATED KINASES” (PURDUE RESEARCH FOUNDATION, priority 2022, published 2025)
Like-named read-outs stand apart in the source and are kept apart here.

Legend:
MNK2 = MNK2 (Homo sapiens, UniProt Q9HBH9); test: MNK2 inhibition, in vitro studies at Reaction Biology Corporation; format: biochemical; settings: 50 nM compound, 10 uM ATP
[1] = molecular target: T1, AXL receptor tyrosine kinase (AXL) (Homo sapiens, UniProt P30530); test: KINOMEscan competition binding assay (Eurofins DiscoverX), AXL
T1 construct: purchased Eurofins DiscoverX (KINOMEscan service)
T1 sequence (P30530 26-894): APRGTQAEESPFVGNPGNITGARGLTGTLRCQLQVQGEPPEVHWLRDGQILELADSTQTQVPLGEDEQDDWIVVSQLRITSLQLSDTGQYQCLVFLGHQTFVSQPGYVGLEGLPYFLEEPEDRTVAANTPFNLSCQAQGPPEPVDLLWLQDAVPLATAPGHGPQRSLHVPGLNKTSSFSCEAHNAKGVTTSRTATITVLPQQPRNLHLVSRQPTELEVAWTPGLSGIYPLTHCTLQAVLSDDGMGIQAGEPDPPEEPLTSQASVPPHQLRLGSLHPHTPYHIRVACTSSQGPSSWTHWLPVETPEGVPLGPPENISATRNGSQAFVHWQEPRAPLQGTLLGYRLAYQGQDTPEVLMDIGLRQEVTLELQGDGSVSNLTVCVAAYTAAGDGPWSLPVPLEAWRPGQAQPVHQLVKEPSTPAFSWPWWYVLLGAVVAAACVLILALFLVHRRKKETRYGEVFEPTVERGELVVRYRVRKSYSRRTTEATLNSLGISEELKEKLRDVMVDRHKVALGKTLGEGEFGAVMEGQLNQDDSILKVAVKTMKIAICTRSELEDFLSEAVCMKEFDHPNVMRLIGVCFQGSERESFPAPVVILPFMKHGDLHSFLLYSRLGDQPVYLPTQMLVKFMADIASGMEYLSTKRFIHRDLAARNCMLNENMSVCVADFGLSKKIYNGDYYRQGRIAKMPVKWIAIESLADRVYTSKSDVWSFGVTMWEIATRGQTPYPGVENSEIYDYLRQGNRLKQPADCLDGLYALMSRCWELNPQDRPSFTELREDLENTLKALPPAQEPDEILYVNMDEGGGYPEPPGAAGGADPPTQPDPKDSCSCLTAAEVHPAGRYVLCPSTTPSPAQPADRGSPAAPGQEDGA
Protocol: The affinity of several compounds hereof having a substituent on the imidazo[1,2-b]pyridazine moiety at position-6, wherein the substituent comprised one or more ring moieties was evaluated with respect to two TAM kinases: AXL and MERTK. […] The assay uses DNA-tagged kinase, an immobilized ligand, and the test compound. Quantitative polymerase chain reaction (PCR) of the DNT tag was then used to measure the ability of the tested compound to displace the immobilized ligand.

[2] = tested on: MDA-MB-231 (breast cancer); test: Growth inhibition of MDA-MB-231 (NCI-60 human tumor cell line screen); format: cell-based

MNK2, sequence (Q9HBH9 whole entry): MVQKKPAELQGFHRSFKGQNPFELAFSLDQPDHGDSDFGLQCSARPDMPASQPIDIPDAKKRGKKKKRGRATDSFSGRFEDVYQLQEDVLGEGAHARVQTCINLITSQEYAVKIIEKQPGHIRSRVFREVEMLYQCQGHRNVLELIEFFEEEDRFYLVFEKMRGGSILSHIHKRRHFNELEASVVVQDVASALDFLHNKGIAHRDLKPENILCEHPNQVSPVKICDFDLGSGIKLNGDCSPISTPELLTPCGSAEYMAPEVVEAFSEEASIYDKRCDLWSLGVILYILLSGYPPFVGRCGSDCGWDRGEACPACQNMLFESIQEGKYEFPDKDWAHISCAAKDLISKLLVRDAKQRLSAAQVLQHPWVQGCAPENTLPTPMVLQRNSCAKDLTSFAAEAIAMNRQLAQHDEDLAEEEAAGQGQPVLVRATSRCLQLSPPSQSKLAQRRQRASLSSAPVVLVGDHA

inhibition at 0.05 µM (MNK2): 96% | Kd ([1]; FIG. 6A, replicate 1, read-out: Kd AXL, replicate 1): 0.77 nM | Kd ([1]; FIG. 6B, replicate 2, read-out: Kd AXL, replicate 2): 1.3 nM | Kd ([1]; Table 1, DiscoverX Eurofins, read-out: Kd AXL): 1.1 nM
Compound: C[C@@H]1CN(c2ccc3ncc(C#Cc4cncc(C(=O)Nc5ccc(CN6CCN(C)CC6)c(C(F)(F)F)c5)c4)n3n2)C[C@H](C)O1 [HSND80, 5-((6-((2S,6R)-2,6-Dimethylmorpholino)imidazo[1,2-b]pyridazin-3-yl)ethynyl)-N-(4-((4-methylpiperazin-1-yl)methyl)-3-(trifluoromethyl)phenyl)nicotinamide]
inhibition at 0.2 µM ([2]; 200 nM): 100% | IC50 ([2]; 72 hours): 8.6 nM
